Test results as given in patent US20220009914A1, “Analogs of Nitrofuran Antibiotics to Combat Resistance” (The Trustees of Indiana University, priority 2020, published 2022).

Key:
E. coli GroEL/ES [1] = biological target: T1, E. coli GroEL/ES (Escherichia coli, UniProt P0A6F5); test: GroEL/ES-mediated dMDH refolding assay; format: biochemical
T1 construct: made in house; host or cells: GroEL in NEB 5-alpha E. coli; GroES in E. coli BL21 (DE3)
Experimental: Evaluating compounds for inhibition in the GroEL/ES-mediated dMDH refolding assay. All compounds were evaluated for inhibiting E. coli GroEL/ES-mediated refolding of the denatured MDH reporter enzyme. Reagent preparation: For these assays, four primary reagent stocks were prepared: 1) GroEL/ES-dMDH binary complex stock; 2) ATP initiation stock; 3) EDTA quench stock; 4) MDH enzymatic assay stock. Denatured MDH (dMDH) was prepared by 2-fold dilution of MDH (5 mg/ml, soluble pig heart MDH from Roche, product #10127248001) with denaturant buffer (7 M guanidine-HCl, 200 mM Tris, pH 7.4, and 50 mM DTT). MDH was completely denatured by incubating at room temperature for >45 min. The binary complex solutions were prepared by slowly adding the dMDH stock to a stirring stock with GroEL and GroES in folding buffer (50 mM Tris-HCl, pH 7.4, 50 mM KCl, 10 mM MgC2, and 1 mM DTT). […] For the ATP initiation stock, ATP solid was diluted into folding buffer to a final concentration of 2.5 mM. Quench solution contained 600 mM EDTA (pH 8.0). The MDH enzymatic assay stock consisted of 20 mM sodium mesoxalate and 1.6 mM NADH in reaction buffer (50 mM Tris-HCl, pH 7.4, 50 mM KCl, and 1 mM DTT).
Assay Protocol: First, 30 μL aliquots of the GroEL/ES-dMDH binary complex stocks were dispensed into clear, 384-well polystyrene plates. […] The chaperonin-mediated refolding cycles were initiated by addition of 20 μL of ATP stock (reagent concentrations during refolding cycle: 50 nM GroEL, 60 nM GroES, 12 nM dMDH, 1 mM ATP, and compounds of 100 μM to 46 nM, 3-fold dilution series) and the refolding reactions were incubated at 37° C. […] Next, the assay was quenched by addition of 10 μL of the EDTA stock to give a final concentration of 100 mM in the wells. […] A340 nm measurements were recorded at 0.5 minutes (start point) and at successive time points until the amount of NADH consumed reached ˜90% (end point, generally between 20-35 minutes).
Evaluating analogs for inhibiting GroEL/ES-mediated substrate refolding functions. […] We first evaluated all test compounds in our standard GroEL/ES-mediated refolding assays that employ either malate dehydrogenase (MDH) or rhodanese (Rho) as the denatured substrate reporter enzymes. When denatured, these enzymes are efficiently folded by GroEL/ES in the absence of inhibitors, and thus act as reporters to determine the degree of inhibition against the bacterial chaperonin system. Inhibition was examined in the presence of these two orthogonal substrates in order to support that GroEL/ES inhibitors were on-target. To further support on-target effects against GroEL/ES, we counter-screened for inhibition of the native MDH and Rho enzymatic reporter reactions, where test compounds were added after the denatured MDH and Rho substrate enzymes were completely refolded by GroEL/ES.

E. coli GroEL/ES [2] = biological target: T1, E. coli GroEL/ES; test: GroEL/ES-mediated dRho refolding assay; format: biochemical
Experimental: Evaluating compounds for inhibition in the GroEL/ES-mediated dRho refolding assay. Reagent preparation: For this assay, five primary reagent stocks were prepared: 1) GroEL/ES-dRho binary complex stock; 2) ATP initiation stock; 3) thiocyanate enzymatic assay stock; 4) formaldehyde quench stock; 5) ferric nitrate reporter stock. Denatured rhodanese (dRho) was prepared by 3-fold dilution of rhodanese (Roche product #R^1756, diluted to 10 mg/mL with H2O) with denaturant buffer (12 M Urea, 50 mM Tris-HCl, pH 7.4, and 10 mM DTT). Rhodanese was completely denatured by incubating at room temperature for >45 min. The binary complex solution was prepared by slowly adding the dRho stock to a stirring stock of concentrated GroEL in modified folding buffer (50 mM Tris-HCl, pH 7.4, 50 mM KCl, 10 mM MgCl2, 5 mM Na2S2O3, and 1 mM DTT). The solution was centrifuged at 16,000×g for 5 minutes, and the supernatant was collected and added to a solution of GroES in modified folding buffer to give final protein concentrations of 100 nM GroEL, 120 nM GroES, and 80 nM dRho. The binary complex stock was prepared immediately prior to use. For the ATP initiation stock, ATP solid was diluted into modified folding buffer to a final concentration of 2.0 mM. The thiocyanate enzymatic assay stock was prepared to contain 70 mM KH2PO4, 80 mM KCN, and 80 mM Na2S2O3 in water. The formaldehyde quench solution contained 30% formaldehyde in water.
Assay Protocol: First, 10 μL aliquots of the GroEL/ES-dRho complex stock were dispensed into clear, flat-bottom 384-well polystyrene plates. […] After incubating for 40 minutes at 37° C. for the refolding cycle, 30 μL of the thiocyanate enzymatic assay stock was added and incubated for 60 min at room temperature for the refolded rhodanese enzymatic reporter reaction. The reporter reaction was quenched by adding 10 μL of the formaldehyde quench stock, and then 40 μL of the ferric nitrate reporter stock was added to quantify the amount of thiocyanate produced during the enzymatic reporter reaction, which is proportional to the amount of dRho refolded by GroEL/ES. After incubating at room temperature for 15 min, the absorbance by Fe(SCN)3 was measured at 460 nm using a Molecular Devices SpectraMax Plus384 microplate reader. A second set of baseline control plates were prepared analogously, but without GroEL/ES-dRho protein binary solution, to correct for possible interference from compound absorbance or turbidity. […] Results presented represent the averages of IC50 values obtained from at least four replicates.
Evaluating compounds for inhibition in the GroEL/ES-mediated dRho refolding assay. All compounds were evaluated for inhibiting E. coli GroEL/ES-mediated refolding of the denatured Rho reporter enzyme as per our previously reported procedure. Results presented represent the averages of IC50 values obtained from at least four replicates.

[3] = without NfsB nitroreductase, read-out: GroEL/ES-dMDH Refolding IC50
[4] = read-out: GroEL/ES-dRho Refolding IC50

T1 sequence (P0A6F5 2-548): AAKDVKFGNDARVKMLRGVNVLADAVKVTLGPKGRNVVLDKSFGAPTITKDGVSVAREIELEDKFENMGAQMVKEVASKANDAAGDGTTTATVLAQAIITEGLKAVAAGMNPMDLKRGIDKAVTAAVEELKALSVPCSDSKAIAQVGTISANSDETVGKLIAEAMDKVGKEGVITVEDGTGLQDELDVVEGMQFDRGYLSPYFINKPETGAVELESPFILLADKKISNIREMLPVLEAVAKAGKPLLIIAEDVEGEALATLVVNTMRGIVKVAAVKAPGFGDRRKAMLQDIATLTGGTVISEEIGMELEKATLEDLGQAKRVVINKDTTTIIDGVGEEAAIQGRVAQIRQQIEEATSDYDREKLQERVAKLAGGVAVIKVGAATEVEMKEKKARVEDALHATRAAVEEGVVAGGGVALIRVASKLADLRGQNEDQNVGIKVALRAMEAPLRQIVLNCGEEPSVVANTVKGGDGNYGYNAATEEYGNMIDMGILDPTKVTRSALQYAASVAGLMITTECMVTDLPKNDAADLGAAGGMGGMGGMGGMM

Structure (SMILES) | IC50 (E. coli GroEL/ES [1]) | IC50 (E. coli GroEL/ES [2]) | IC50 (E. coli GroEL/ES [1]; [3]) | IC50 (E. coli GroEL/ES [2]; [4])
O=C(N/N=C/c1ccc(O)c2ncccc12)c1ccc(NS(=O)(=O)c2cccs2)cc1 [Compound 13, N-(4-(2-((8-hydroxyquinolin-5-yl)methylene)hydrazine-1-carbonyl)phenyl)thiophene-2-sulfonamide] | 3.2 µM | 0.81 µM | – | –
O=C(N/N=C/c1ccc(O)c2ncccc12)c1cccc2ccccc12 [Compound 9, N′-((8-hydroxyquinolin-5-yl)methylene)-1-naphthohydrazide] | 13 µM | 2.1 µM | – | –
COc1ccc(C(=O)N/N=C/c2ccccc2)cc1 [Compound 37, N′-benzylidene-4-methoxybenzohydrazide] | > 100 µM | > 250 µM | – | –
O=C(N/N=C/c1ccc(O)c2ncccc12)c1ccccc1 [Compound 5, N′-((8-hydroxyquinolin-5-yl)methylene)benzohydrazide] | > 100 µM | 176 µM | – | –
O=C(N/N=C/c1ccc(O)c2ncccc12)c1cccc(Oc2ccccc2)c1 [Compound 11, N′-((8-hydroxyquinolin-5-yl)methylene)-3-phenoxybenzohydrazide] | 13 µM | 7.8 µM | – | –
O=Cc1ccc(O)c2ncccc12 [Compound 40, reference compound] | – | – | > 100 µM | 30 µM
O=C(N/N=C/c1ccc([N+](=O)[O-])o1)c1ccc(NS(=O)(=O)c2cccs2)cc1 [Compound 26, N-(4-(2-((5-nitrofuran-2-yl)methylene)hydrazine-1-carbonyl)phenyl)thiophene-2-sulfonamide] | > 100 µM | 62 µM | – | –
O=C(N/N=C/c1ccc(O)c2ncccc12)c1ccc(NS(=O)(=O)c2ccc(Br)cc2)cc1 [Compound 14, 4-bromo-N-(4-(2-((8-hydroxyquinolin-5-yl)methylene)hydrazine-1-carbonyl)phenyl)benzenesulfonamide] | 14 µM | 1.8 µM | – | –
COc1ccc(C(=O)N/N=C/c2ccc(O)c3ccccc23)cc1 [Compound 29, N′-((4-hydroxynaphthalen-1-yl)methylene)-4-methoxybenzohydrazide] | > 100 µM | 117 µM | – | –
CCN(CC)S(=O)(=O)c1cccc(C(=O)N/N=C/c2ccc([N+](=O)[O-])o2)c1 [Compound 25, N,N-diethyl-3-(2-((5-nitrofuran-2-yl)methylene)hydrazine-1-carbonyl)benzenesulfonamide] | 90 µM | 100 µM | – | –
CCOc1ccc(S(=O)(=O)Nc2ccc(C(=O)N/N=C/c3ccc(O)c4ncccc34)cc2)cc1 [Compound 15, 4-ethoxy-N-(4-(2-((8-hydroxyquinolin-5-yl)methylene)hydrazine-1-carbonyl)phenyl)benzenesulfonamide] | 6 µM | 1.4 µM | – | –
COc1ccc(C(=O)N/N=C/c2ccc(O)c3ncccc23)cc1 [Compound 1, N′-((8-hydroxyquinolin-5-yl)methylene)-4-methoxybenzohydrazide] | 77 µM | – | – | –
O=C(N/N=C/c1ccc([N+](=O)[O-])o1)c1ccc(Cl)s1 [Compound 17, 5-chloro-N′-((5-nitrofuran-2-yl)methylene)thiophene-2-carbohydrazide] | – | – | 88 µM | 60 µM
COc1ccc(C(=O)NN)cc1 [Compound 42, reference compound] | > 100 µM | > 250 µM | – | –
O=C(N/N=C/c1ccc(O)cc1)c1ccccc1 [Compound 36, N′-(4-hydroxybenzylidene)benzohydrazide] | > 100 µM | > 250 µM | – | –
CN(C)c1ccc(C(=O)N/N=C/c2ccc(O)c3ncccc23)cc1 [Compound 8, 4-(dimethylamino)-N′-((8-hydroxyquinolin-5-yl)methylene)benzohydrazide] | 27 µM | 7.9 µM | – | –
O=C(N/N=C/c1ccc(O)c2ncccc12)c1cccs1 [Compound 3, N′-((8-hydroxyquinolin-5-yl)methylene)thiophene-2-carbohydrazide] | 65 µM | 38 µM | – | –
COc1ccc(C(=O)N/N=C/c2ccc(O)cc2)cc1 [Compound 35, N′-(4-hydroxybenzylidene)-4-methoxybenzohydrazide] | > 100 µM | > 250 µM | – | –
O=C(N/N=C/c1ccc(O)c2ncccc12)c1ccncc1 [Compound 6, N′-((8-hydroxyquinolin-5-yl)methylene)isonicotinohydrazide] | > 100 µM | > 250 µM | – | –
CCOc1ccc(S(=O)(=O)Nc2ccc(C(=O)N/N=C/c3ccc([N+](=O)[O-])o3)cc2)cc1 [Compound 28, 4-ethoxy-N-(4-(2-((5-nitrofuran-2-yl)methylene)hydrazine-1-carbonyl)phenyl)benzenesulfonamide] | 36 µM | 66 µM | – | –
O=[N+]([O-])c1ccc(O)c2ncccc12 [Nitroxoline, reference compound] | 50 µM | 6.4 µM | – | –
O=C(N/N=C/c1cccc2ncccc12)c1ccccc1 [Compound 32, N′-(quinolin-5-ylmethylene)benzohydrazide] | > 100 µM | > 250 µM | – | –
O=C1CN(/N=C/c2ccc(O)c3ncccc23)C(=O)N1 [Compound 2, 1-(((8-hydroxyquinolin-5-yl)methylene)amino)imidazolidine-2,4-dione] | > 100 µM | 86.4 µM | – | –
O=C(N/N=C/c1ccc([N+](=O)[O-])o1)c1cccs1 [Compound 16, N′-((5-nitrofuran-2-yl)methylene)thiophene-2-carbohydrazide] | – | – | – | 222 µM
O=C1CN(/N=C/c2ccc([N+](=O)[O-])o2)C(=O)N1 [Nitrofurantoin, reference compound] | – | > 250 µM | – | –
O=C(N/N=C/c1ccc([N+](=O)[O-])o1)c1ccncc1 [Compound 19, N′-((5-nitrofuran-2-yl)methylene)isonicotinohydrazide] | – | 64 µM | – | –
O=C(N/N=C/c1ccc([N+](=O)[O-])o1)c1ccccc1 [Compound 18, N′-((5-nitrofuran-2-yl)methylene)benzohydrazide] | – | 100 µM | – | –
